Measured values: patent US9243037B2, “Gramicidin a mutants that function as antibiotics with improved solubility and reduced toxicity” (Trustees of Boston College, priority 2011, dated 2016)
Values after ≈ are worked out from the molar mass of the structure shown. “Also recorded” adds a separate entry of the source.

What was measured:
physchem = type: physicochemical
Summary of the method: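 Peptide DMSO stock (6.0-8.0 mM) diluted 100-fold into 10 mM HEPES, pH 7.0, giving 1% DMSO; sonicated 30 min, centrifuged 14,000 rpm for 10 min. Supernatant concentration determined from tryptophan absorbance at 280 nm (ε=22760 M−1 cm-1).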

[1] = tested on: human red blood cells (hRBCs); assay: K+ leakage from hRBCs (flame atomic emission); type: cell-based
[2] = K+ release from liposomes, lipid not specified; type: biochemical; conditions: in words
Procedure: With the D-Lys residues incorporated towards the C-terminus, the gA peptide analogs described herein display amphipathic sequences. Since many amphipathic peptides are known to cause membrane damage through a detergent-like mechanism instead of forming specific channels,[19] it was further examined whether it is the case with the gA peptide analogs provided herein. Toward this end, the ion selectivity of gA-3, 4, and 5 was assessed by using liposomes encapsulating K+ and Tb3+ respectively. […] The wild type like channel structure of the D-Lys mutants is further supported by the fact that gA-5 and gA-WT share similar signatures in their circular dichroism spectra (FIG. 11). This exclusive leakage of monovalent cations presents a great advantage of the gA analog peptides described herein in comparison to the majority of AMPs, which often cause catastrophic membrane collapse to release all bacterial cellular content, leading to potential complications of over-stimulated immune response.
The K+ leakage from liposomes was determined by a potassium ion selective electrode (K-ISE, Cole-Parmer, Vernon Hills, Ill.). The electrode was calibrated each day before experiments. A liposome solution in Buffer A (2 mL, 500 μM POPC or POPC/POPG⊃10 mM HEPES, 150 mM KCl, pH 7.0) was stirred at constant speed and peptide at various concentration (1 μL in DMSO) was added accumulatively. Three minutes after each peptide addition, the K+ concentration was measured and reported as the K-ISE potential. At the end of each experiment, gA-WT stock (1 μL, 1 mM) was added to induce 100% K+ leakage. The potential reported by the K-ISE was plotted against peptide concentration after the background noise (caused by DMSO addition) was subtracted and normalized to 0-100%.

[3] = Peptide binding onto membranes (Trp fluorescence); conditions: negatively charged POPC/POPG vesicles; in words

SMILES: CC(C)C[C@@H](NC(=O)[C@H](C)NC(=O)CNC(=O)[C@@H](NC=O)C(C)C)C(=O)N[C@@H](C)C(=O)N[C@@H](C(=O)N[C@H](C(=O)N[C@@H](C(=O)N[C@@H](Cc1c[nH]c2ccccc12)C(=O)N[C@H](CCCCN)C(=O)N[C@@H](Cc1c[nH]c2ccccc12)C(=O)N[C@H](CCCCN)C(=O)N[C@@H](Cc1c[nH]c2ccccc12)C(=O)N[C@H](CCCCN)C(=O)N[C@@H](Cc1c[nH]c2ccccc12)C(=O)NCCO)C(C)C)C(C)C)C(C)C (racemic) [gA-5, formyl-V-G-A-dL-A-dV-V-dV-W-dK-W-dK-W-dK-W-NHCH2CH2OH]
- solubility compared with the wild type (physchem): three orders of magnitude
- water solubility, fold higher than wild-type Gramicidin A (physchem): ~1500 fold
- solubility at 30 mins (physchem; pH 7): ~100 µM (≈ 193 µg/mL)
- KC50 (50% K+ ion leakage relative to 1% TritonX-100) [1]: >100 µM
- peptide concentration for 50% K+ ion leakage, fold greater than wild-type Gramicidin A [1]: over 10^6 fold
- K+ release from LUVs [2]: potent activity in K+ release; also recorded: complete K^+ leakage
- apparent dissociation constant (Kd) / binding [3]: dropped by a marginal four fold
